US9499550B2 (BRISTOL-MYERS SQUIBB COMPANY, priority 2012, dated 2016)
Like-named read-outs stand apart in the source and are kept apart here.

Assays:
[1] = tested on: HCV genotype 1a (H77 strain) replicon in HUH-7 cells; experiment: HCV replicon luciferase reporter assay, genotype 1a; assay type: cell-based; conditions: Hepatitis C virus, Huh-7, 72 h, HCV genotype 1a replicon luciferase, 3 days incubation
Procedure, shortened: (§1)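 Replicon inhibition for both genotypes was measured as Renilla luciferase signal (EnduRen, 7.5 μM final, 2 h) after 3-day, 37° C exposure of replicon-bearing HUH-7 cells in 4% FCS DMEM, 0.5% DMSO. The 1b construct carries S1179I; the 1a H77 construct carries P1496L and S2204I. Twenty-point, 3-fold dilutions were fitted four-parametrically for EC50, and CC50 was taken from multiplexed Cell Titer-Blue.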

[2] = tested on: HCV genotype 1b (Con1) replicon in HUH-7 cells; experiment: HCV replicon luciferase reporter assay, genotype 1b; assay type: cell-based; conditions: Hepatitis C virus, Huh-7, 72 h, HCV genotype 1b replicon luciferase, 3 days incubation
Procedure, shortened: as §1

SMILES | EC50 ([1]; read-out: LE_1a (EC50, range)) [nM] | EC50 ([2]; read-out: LE_1b (EC50, range)) [nM] | EC50 ([1]; read-out: LE_1a (EC50)) [nM] | EC50 ([2]; read-out: LE_1b (EC50)) [nM]
COc1ccc2c(O[C@@H]3C[C@H]4C(=O)N[C@]5(C(=O)NS(=O)(=O)C6(C)CC6)C[C@H]5/C=C\CC[C@@H](C)C[C@@H](C)[C@H](NC(=O)OC(C)(C)C(C)(F)F)C(=O)N4C3)nc(-c3ccc4c(c3)OCCO4)cc2c1 [Compound 5237, 3,3-difluoro-2-methylbutan-2-yl((2R,6S,7R,9R,13aS,14aR,16aS,Z)-2-((3-(2,3-dihydrobenzo[b][1,4]dioxin-6-yl)-6-methoxyisoquinolin-1-yl)oxy)-7,9-dimethyl-14a-(((1-methylcyclopropyl)sulfonyl)carbamoyl)-5,16-dioxo-1,2,3,5,6,7,8,9,10,11,13a,14,14a,15,16,16a-hexadecahydrocyclopropa[e]pyrrolo[1,2-a][1,4]diazacyclopentadecin-6-yl)carbamate] | < 5.46 | < 5.46 | – | –
COc1ccc2c(O[C@@H]3C[C@H]4C(=O)N[C@]5(C(=O)NS(=O)(=O)C6CC6)C[C@H]5/C=C\CC[C@@H](C)C[C@@H](C)[C@H](NC(=O)OC(C)(C)C)C(=O)N4C3)nc(-c3ccc4c(c3)OCCO4)cc2c1 [Compound 5239, tert-butyl ((2R,6S,7R,9R,13aS,14aR,16aS,Z)-14a-((cyclopropylsulfonyl)carbamoyl)-2-((3-(2,3-dihydrobenzo[b][1,4]dioxin-6-yl)-6-methoxyisoquinolin-1-yl)oxy)-7,9-dimethyl-5,16-dioxo-1,2,3,5,6,7,8,9,10,11,13a,14,14a,15,16,16a-hexadecahydrocyclopropa[e]pyrrolo[1,2-a][1,4]diazacyclopentadecin-6-yl)carbamate] | < 5.46 | < 5.46 | – | –
COc1ccc2c(O[C@@H]3C[C@H]4C(=O)N[C@]5(C(=O)NS(=O)(=O)C6CC6)C[C@H]5/C=C\CC[C@@H](C)C[C@@H](C)[C@H](NC(=O)OC(C)(C)C(C)(F)F)C(=O)N4C3)nc(-c3ccc4c(c3)OCCO4)cc2c1 [Compound 5241, 3,3-difluoro-2-methylbutan-2-yl((2R,6S,7R,9R,13aS,14aR,16aS,Z)-14a-((cyclopropylsulfonyl)carbamoyl)-2-((3-(2,3-dihydrobenzo[b][1,4]dioxin-6-yl)-6-methoxyisoquinolin-1-yl)oxy)-7,9-dimethyl-5,16-dioxo-1,2,3,5,6,7,8,9,10,11,13a,14,14a,15,16,16a-hexadecahydrocyclopropa[e]pyrrolo[1,2-a][1,4]diazacyclopentadecin-6-yl)carbamate] | < 5.46 | < 5.46 | – | –
COc1ccc2c(O[C@@H]3C[C@H]4C(=O)N[C@]5(C(=O)NS(=O)(=O)C6CC6)C[C@H]5/C=C\CC[C@@H](C)C[C@@H](C)[C@H](NC(=O)OC(C)(C)C(F)(F)F)C(=O)N4C3)nc(-c3ccc4c(c3)OCCO4)cc2c1 [Compound 5243, 1,1,1-trifluoro-2-methylpropan-2-yl((2R,6S,7R,9R,13aS,14aR,16aS,Z)-14a-((cyclopropylsulfonyl)carbamoyl)-2-((3-(2,3-dihydrobenzo[b][1,4]dioxin-6-yl)-6-methoxyisoquinolin-1-yl)oxy)-7,9-dimethyl-5,16-dioxo-1,2,3,5,6,7,8,9,10,11,13a,14,14a,15,16,16a-hexadecahydrocyclopropa[e]pyrrolo[1,2-a][1,4]diazacyclopentadecin-6-yl)carbamate] | < 5.46 | < 5.46 | – | –
C[C@H]1CC/C=C\[C@@H]2C[C@@]2(C(=O)NS(=O)(=O)C2(C)CC2)NC(=O)[C@@H]2C[C@@H](Oc3nccc4c5c(ccc34)OCCO5)CN2C(=O)[C@@H](NC(=O)OC(C)(C)C)[C@H](C)C1 [Compound 5244, tert-butyl ((2R,6S,7R,9S,13aS,14aR,16aS,Z)-2-((2,3-dihydro-[1,4]dioxino[2,3-f]isoquinolin-7-yl)oxy)-7,9-dimethyl-14a-(((1-methylcyclopropyl)sulfonyl)carbamoyl)-5,16-dioxo-1,2,3,5,6,7,8,9,10,11,13a,14,14a,15,16,16a-hexadecahydrocyclopropa[e]pyrrolo[1,2-a][1,4]diazacyclopentadecin-6-yl)carbamate] | 4.82 to 103 | 4.82 to 103 | – | –
C[C@@H]1CC/C=C\[C@@H]2C[C@@]2(C(=O)NS(=O)(=O)C2(C)CC2)NC(=O)[C@@H]2C[C@@H](Oc3nccc4c5c(ccc34)OCCO5)CN2C(=O)[C@@H](NC(=O)OC(C)(C)C)[C@H](C)C1 [Compound 5245, tert-butyl ((2R,6S,7R,9R,13aS,14aR,16aS,Z)-2-((2,3-dihydro-[1,4]dioxino[2,3-f]isoquinolin-7-yl)oxy)-7,9-dimethyl-14a-(((1-methylcyclopropyl)sulfonyl)carbamoyl)-5,16-dioxo-1,2,3,5,6,7,8,9,10,11,13a,14,14a,15,16,16a-hexadecahydrocyclopropa[e]pyrrolo[1,2-a][1,4]diazacyclopentadecin-6-yl)carbamate] | < 5.46 | < 5.46 | – | –
C[C@H]1CC/C=C\[C@@H]2C[C@@]2(C(=O)NS(=O)(=O)C2(C)CC2)NC(=O)[C@@H]2C[C@@H](Oc3nccc4c5c(ccc34)OCCO5)CN2C(=O)[C@@H](NC(=O)OC(C)(C)C(F)(F)F)[C@H](C)C1 [Compound 5246, 1,1,1-trifluoro-2-methylpropan-2-yl((2R,6S,7R,9S,13aS,14aR,16aS,Z)-2-((2,3-dihydro-[1,4]dioxino[2,3-f]isoquinolin-7-yl)oxy)-7,9-dimethyl-14a-(((1-methylcyclopropyl)sulfonyl)carbamoyl)-5,16-dioxo-1,2,3,5,6,7,8,9,10,11,13a,14,14a,15,16,16a-hexadecahydrocyclopropa[e]pyrrolo[1,2-a][1,4]diazacyclopentadecin-6-yl)carbamate] | 4.82 to 103 | 4.82 to 103 | – | –
C[C@@H]1CC/C=C\[C@@H]2C[C@@]2(C(=O)NS(=O)(=O)C2(C)CC2)NC(=O)[C@@H]2C[C@@H](Oc3nccc4c5c(ccc34)OCCO5)CN2C(=O)[C@@H](NC(=O)OC(C)(C)C(F)(F)F)[C@H](C)C1 [Compound 5247, 1,1,1-trifluoro-2-methylpropan-2-yl((2R,6S,7R,9R,13aS,14aR,16aS,Z)-2-((2,3-dihydro-[1,4]dioxino[2,3-f]isoquinolin-7-yl)oxy)-7,9-dimethyl-14a-(((1-methylcyclopropyl)sulfonyl)carbamoyl)-5,16-dioxo-1,2,3,5,6,7,8,9,10,11,13a,14,14a,15,16,16a-hexadecahydrocyclopropa[e]pyrrolo[1,2-a][1,4]diazacyclopentadecin-6-yl)carbamate] | < 5.46 | < 5.46 | – | –
C[C@H]1CC/C=C\[C@@H]2C[C@@]2(C(=O)NS(=O)(=O)C2(C)CC2)NC(=O)[C@@H]2C[C@@H](Oc3nccc4c5c(ccc34)OCCO5)CN2C(=O)[C@@H](NC(=O)O[C@@H]2C[C@@H]3C[C@@H]3C2)[C@H](C)C1 [Compound 5248, (1R,3r,5 S)-bicyclo[3.1.0]hexan-3-yl((2R,6S,7R,9S,13aS,14aR,16aS,Z)-2-((2,3-dihydro-[1,4]dioxino[2,3-f]isoquinolin-7-yl)oxy)-7,9-dimethyl-14a-(((1-methylcyclopropyl)sulfonyl)carbamoyl)-5,16-dioxo-1,2,3,5,6,7,8,9,10,11,13a,14,14a,15,16,16a-hexadecahydrocyclopropa[e]pyrrolo[1,2-a][1,4]diazacyclopentadecin-6-yl)carbamate] | 4.82 to 103 | < 5.46 | – | –
C[C@@H]1CC/C=C\[C@@H]2C[C@@]2(C(=O)NS(=O)(=O)C2(C)CC2)NC(=O)[C@@H]2C[C@@H](Oc3nccc4c5c(ccc34)OCCO5)CN2C(=O)[C@@H](NC(=O)O[C@@H]2C[C@@H]3C[C@@H]3C2)[C@H](C)C1 [Compound 5249, (1R,3r,5 S)-bicyclo[3.1.0]hexan-3-yl((2R,6S,7R,9R,13aS,14aR,16aS,Z)-2-((2,3-dihydro-[1,4]dioxino[2,3-f]isoquinolin-7-yl)oxy)-7,9-dimethyl-14a-(((1-methylcyclopropyl)sulfonyl)carbamoyl)-5,16-dioxo-1,2,3,5,6,7,8,9,10,11,13a,14,14a,15,16,16a-hexadecahydrocyclopropa[e]pyrrolo[1,2-a][1,4]diazacyclopentadecin-6-yl)carbamate] | < 5.46 | < 5.46 | – | –
C[C@H]1CC/C=C\[C@@H]2C[C@@]2(C(=O)NS(=O)(=O)C2(C)CC2)NC(=O)[C@@H]2C[C@@H](Oc3nccc4c5c(ccc34)OCCO5)CN2C(=O)[C@@H](NC(=O)OCC2(C)CC2)[C@H](C)C1 [Compound 5250, (1-methylcyclopropyl)methyl ((2R,6S,7R,9S,13aS,14aR,16aS,Z)-2-((2,3-dihydro-[1,4]dioxino[2,3-f]isoquinolin-7-yl)oxy)-7,9-dimethyl-14a-(((1-methylcyclopropyl)sulfonyl)carbamoyl)-5,16-dioxo-1,2,3,5,6,7,8,9,10,11,13a,14,14a,15,16,16a-hexadecahydrocyclopropa[e]pyrrolo[1,2-a][1,4]diazacyclopentadecin-6-yl)carbamate] | 4.82 to 103 | 4.82 to 103 | 22.6 | 5.5
C[C@@H]1CC/C=C\[C@@H]2C[C@@]2(C(=O)NS(=O)(=O)C2(C)CC2)NC(=O)[C@@H]2C[C@@H](Oc3nccc4c5c(ccc34)OCCO5)CN2C(=O)[C@@H](NC(=O)OCC2(C)CC2)[C@H](C)C1 [Compound 5251, (1-methylcyclopropyl)methyl ((2R,6S,7R,9R,13aS,14aR,16aS,Z)-2-((2,3-dihydro-[1,4]dioxino[2,3-f]isoquinolin-7-yl)oxy)-7,9-dimethyl-14a-(((1-methylcyclopropyl)sulfonyl)carbamoyl)-5,16-dioxo-1,2,3,5,6,7,8,9,10,11,13a,14,14a,15,16,16a-hexadecahydrocyclopropa[e]pyrrolo[1,2-a][1,4]diazacyclopentadecin-6-yl)carbamate] | < 5.46 | < 5.46 | – | –
